Values of other authors in patent US20240082136A1, “TOPICAL COMPOSITION” (LILIGER LTD., priority 2021, published 2024).

Experiments:
[1] = system: stratum corneum / dry skin; conditions: topical treatment
cutaneous vasodilation = conditions: in vivo

Compound | Clinical symptoms of dry skin [1] | Skin moisture [1] | Urea in the stratum corneum [1] | Cutaneous vasodilation (cutaneous vasodilation)
Cl.N=C(N)NCCC[C@H](N)C(=O)O [arginine hydrochloride] | improvement | increase | significantly increase | 
botulinum toxin A |  |  |  | eliminates
